The target of one data set is T1, human brain MIP synthase (Homo sapiens, UniProt Q9NPH2).
T1 construct: supernatant fraction obtained after sonication; from tissue; host or cells: postmortem human prefrontal cortex, 9,000 x g supernatant of sonicated homogenate
T1 sequence (Q9NPH2 1-558): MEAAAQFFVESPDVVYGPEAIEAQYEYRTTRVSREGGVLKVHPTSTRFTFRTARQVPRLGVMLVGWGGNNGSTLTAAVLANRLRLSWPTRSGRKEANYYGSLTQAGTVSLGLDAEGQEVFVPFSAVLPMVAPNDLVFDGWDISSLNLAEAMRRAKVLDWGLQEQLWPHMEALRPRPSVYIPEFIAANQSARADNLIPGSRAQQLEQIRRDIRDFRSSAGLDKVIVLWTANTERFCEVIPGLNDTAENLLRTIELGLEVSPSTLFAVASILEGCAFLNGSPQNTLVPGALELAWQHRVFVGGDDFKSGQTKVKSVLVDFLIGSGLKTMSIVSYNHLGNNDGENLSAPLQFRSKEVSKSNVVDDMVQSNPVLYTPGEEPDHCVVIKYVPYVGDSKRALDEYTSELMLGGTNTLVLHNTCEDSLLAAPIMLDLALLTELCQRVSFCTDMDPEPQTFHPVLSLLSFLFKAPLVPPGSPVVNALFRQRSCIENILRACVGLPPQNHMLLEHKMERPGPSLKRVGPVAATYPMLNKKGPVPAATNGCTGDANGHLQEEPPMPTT
Kind of data set: Human brain MIP synthase activity in postmortem prefrontal cortex homogenate. The format is biochemical. The settings on record: for inhibited MIP synthase activity (which of the other psychotropic drugs): at concentrations 1.5 times greater than their upper therapeutic range (concentrations in Table 2); for Ki: human brain homogenate. On the procedure:
Human brain MIP synthase activity. Five μl of the supernatant fraction obtained after sonication (Ultrasonic Processor, Newtown, Conn., 15 sec at 0.1 output watts at 4° C.) and centrifugation for 20 min at 9,000×g at 4° C. of postmortem human prefrontal cortex (1 mg wet weight in 0.5 ml of 50 mM Tris HCl, pH 7.4) were added to 20 μl reaction mixture containing 4 mM D-glucose-6-phosphate, 1.25 μCi D-glucose-6-phosphate [^14C], 1.6 mM NAD^+, 0.45 mM KCl, 5.4 mM MgCl2 and 0.9 mM Tris HCl, pH 7.6, with or without 5 mU IMPase (Sigma, St. Louis). Incubation with or without various drugs concentrations (table 2 and table 3) was carried out for 3 hours (within the linear range) at 37° C. The reaction was stopped by adding 50 μl cold double distilled water (ddH20). Seventy out of the 80 μl were added to test tubes containing 1.25 g strong basic anion resin (Amberjet 4200, Rohm and Haas, Philadelphia) in 1 ml ddH2O. The mixtures were vortexed for 10 min, then centrifugated for 10 min at 10,000×g at room temperature, and 200 μl supernatant taken for ^14C counting (Liquid Scintillation Counter, Kontron, Basel). The enzymatic activity was calculated by subtracting values without IMPase from the measures with IMPase. The measurements were carried out in triplicate.
Table 2 details the drugs and their concentrations compared with their therapeutic concentrations, studied for possible inhibition of human brain MIP synthase activity. Each drug was tested twice, each experiment in triplicate.

For data set [1], the system named is growth cones of newborn rat dorsal root ganglia (DRG) cells. The settings on record: reversed by addition of myo-inositol; cited from earlier work.
For another data set, the system named is growth cones of rat DRGs. The data set can be described thus: Growth cone spreading in rat neuron DRG explants. The format is cell-based. As to conditions: 1 mM, 24 hour exposure. As for the experimental part:
Rat neuron DRG (dorsal root ganglia) explants. […] After 24 hours for attachment, cytosine β-arabinofuranoside (ara-C, 10 μM) was added for 24 hours to kill non-neuronal cells. […] The explants were then fixed in 4% paraformaldehyde in PBS (Phosphate buffered saline) for 20 minutes at room temperature. Growth cones were analysed on an inverted microscope (Zeiss Axiovert) and measured using an NIH Image software.

Data set [2] has as its system neural tube defects (NTDs). The settings on record: in vivo; cited from earlier work.
For data set [3] the following is noted: 400 mg/kg/day IP twice daily for 9 or 28 days; cited from earlier work.
For data set [4], the system named is whole brain inositol levels. The data set can be described thus: Whole brain inositol levels in mice after chronic VPA administration. The format is in vivo. The settings on record: for mice whole brain inositol levels: means ± S.E.M. On the procedure:
(§1) Animals. The study was approved by the Ben-Gurion University (Beer Sheva, Israel) Institutional Review Committee for the Use of Animals, and the procedures were carried out in compliance with the declaration of the National Institute of Health Guide for care and use of laboratory animals [Council N R, editor. Guide for the care and use of laboratory animals. Washington, D.C.: National Academy Press; 1996]. […] J Neurochem 1999; 72(2):879-82] which approximate therapeutically-relevant plasma levels. […] Prog Neurobiol 1999; 58(1):31-59]. One saline-injected group was sacrificed right after the injection. All other four groups were sacrificed one hour after the injection. Frontal cortex was removed from all mice right after sacrifice and frozen (−70° C.) till further processing. […] Mice of group II (n=13, controls) were injected saline (IP) twice a day. Animals were then sacrificed, brain removed and dealt as above.
Gas chromatographic measurement of brain inositol levels. Mouse brain free inositol levels were analyzed as trimethylsilyl (TMS) derivatives by gas-liquid chromatography (GC), as described in Shapiro J et al [Shapiro J, Belmaker R H, Beigon A, Seker A, Agam G. Scyllo-Inositol in Post-Mortem Brain of Suicide Victims, Bipolar, Unipolar and Schizophrenic Patients. J Neural Transm 2000; 107: 603-607] using a capillary column. […] Replicate reliability was tested in rat brain. […] Each sample extract was assayed at least in duplicate. The results presented are the average of the replicates. Assays were performed in a blind and balanced design such that each run included samples from all comparison groups.

The subject of data set [5] is frontal cortex inositol levels. The data set can be described thus: Frontal cortex inositol levels in mice after a single dose of VPA (gas chromatography). The format is in vivo. The settings on record: acute, single IP dose 300, 600, 800 mg/kg, sacrificed one hour after injection; all concentrations tested. On the procedure: as §1
Gas chromatographic measurement of brain inositol levels. Mouse brain free inositol levels were analyzed as trimethylsilyl (TMS) derivatives by gas-liquid chromatography (GC), as described in Shapiro J et al [Shapiro J, Belmaker R H, Beigon A, Seker A, Agam G. Scyllo-Inositol in Post-Mortem Brain of Suicide Victims, Bipolar, Unipolar and Schizophrenic Patients. J Neural Transm 2000; 107: 603-607] using a capillary column. […] Replicate reliability was tested in rat brain. […]

A further data set has as its target T2, IMPase (Homo sapiens, UniProt P29218).
T2 sequence (P29218 1-277): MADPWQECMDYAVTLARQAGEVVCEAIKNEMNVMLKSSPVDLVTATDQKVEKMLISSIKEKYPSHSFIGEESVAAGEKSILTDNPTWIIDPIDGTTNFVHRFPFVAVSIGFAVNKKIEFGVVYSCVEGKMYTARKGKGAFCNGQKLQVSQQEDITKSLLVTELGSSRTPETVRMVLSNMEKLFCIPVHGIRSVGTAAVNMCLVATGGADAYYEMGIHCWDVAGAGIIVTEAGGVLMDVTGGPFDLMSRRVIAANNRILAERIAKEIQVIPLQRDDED
The settings on record: cited from earlier work.

Like-named read-outs stand apart in the source and are kept apart here.

By inhibition is commonly meant the drop in the measured response relative to a control, in per cent. For orientation: Ki means the equilibrium dissociation constant of an inhibitor or competing ligand from its target.

On to `O=C1NC(=O)C(c2ccccc2)(c2ccccc2)N1` [phenytoin], for which the “inhibited MIP synthase activity (which of the other psychotropic drugs)” value (from here on “inhibited MIP synthase activity”) against human brain MIP synthase is listed as “None”.
`NC(=O)N1c2ccccc2C=Cc2ccccc21` [carbamazepine]: at human brain MIP synthase, the “inhibited MIP synthase activity” value is reported as “None”. Further, the “effect on spreading of growth cones of newborn rat DRG cells” value in data set [1] is “increased spreading”.
Regarding `CN(C)CCCN1c2ccccc2CCc2ccccc21` [imipramine], the “inhibited MIP synthase activity” value against human brain MIP synthase is reported as “None”.
At human brain MIP synthase (1.4 mM), `CCCC(CCC)C(N)=O` [VPD, valpromide] displayed an inhibition at 1400 µM of 34%. In addition, the “effect on growth cone spreading of DRGs” value in the data set with growth cones of rat DRGs is listed as “no increased growth cone spreading”.
For the compound `CNC(=O)C1C(C)(C)C1(C)C` [M-TMCD, N-methyl-2,2,3,3-tetramethylcyclopropanecarboxamide], the inhibition at 1300 µM at human brain MIP synthase (read-out: Inhibition of human brain MIP synthase activity) came to 93%. Moreover, the teratogenicity entry in data set [2] is “lack of teratogenicity”.
Take `O=C(CCCN1CCC(O)(c2ccc(Cl)cc2)CC1)c1ccc(F)cc1` [haloperidol]: the “inhibited MIP synthase activity” value against human brain MIP synthase was “None”.
`CN(C)CCCN1c2ccccc2Sc2ccc(Cl)cc21` [chlorpromazine]: the “inhibited MIP synthase activity” value against human brain MIP synthase is given as “None”.
The same measure, in the same setting: next, `CN(C)CCCN1c2ccccc2CCc2ccc(Cl)cc21` [clomipramine]: “None”.
`CCCC(CCC)C(=O)O` [VPA, valproic acid] registered an inhibition at 1000 µM against human brain MIP synthase (1.0 mM) of 100%. In addition, the Ki on human brain MIP synthase (read-out: Ki for MIP synthase (Dixon's plot)) was 210 µM; on human brain MIP synthase (read-out: Ki for MIP synthase (Lineweaver-Burk plot)), 240 µM. Moreover, the “blood VPA levels” value in data set [3] was 0.27 ± 0.02 mM. The “mice whole brain inositol levels” value in data set [4] (IP injection of VPA twice a day, 400-800 mg/kg/day, fourteen days) is 27.9 ± 3.2; in data set [4] (VPA in drinking water (12.5 g/liter) for 11 days), 30.1 ± 1.7. Further, the “effect of chronic VPA on brain inositol levels” value in data set [4] (eleven days in drinking water or 14 days IP injection) is “did not deplete brain inositol levels”. Moreover, in data set [5], the “reduction in frontal cortex inositol concentration” value is 20%. Also, in data set [1], the “effect on spreading of growth cones of newborn rat DRG cells” value was “increased spreading”. Moreover, the “effect on IMPase activity” value at IMPase is listed as “no effect”.

Values taken from US20070043122A1, “Use of 2,2,3,3, tetramethylcyclopropane carboxylic acid derivatives for treating psychiatric disorders” (YISSUM RESEARCH DEVELOPMENT CO. OF THE HEBREW UNIVERSITY OF …, priority 2003, published 2007).
